Laboratory results published in ChEMBL document CHEMBL3885861, “Open TG-GATES”.

Species on record: Rattus norvegicus
Experiment: Open TG-GATES - Regimen: Single
Format: toxicity, organism-based, Sprague-Dawley
Design: regimen Single, gender Male, age 6 weeks
Details: in vivo, po, 0 mg/kg, route gavage, dose level Control; for APTT / Bas / Eos / Fbg / Hb / Ht / Lym / MCH / MCHC / MCV / Mono / Neu / PT / Plat / RBC / Ret / WBC: tissue Blood; for KIDNEY_L / KIDNEY_R / KIDNEY_TOTAL: tissue Kidney; for LIVER: tissue Liver; for A/G / ALP / ALT / AST / BUN / CRE / Ca / Cl / DBIL / GLC / IP / K / LDH / Na / PL / RALB / TBIL / TC / TG / TP / gamma-GTP: tissue Plasma

O=NN(CCCl)C(=O)NC1CCCCC1 [LOMUSTINE]
TERMINAL_BW (3 h): 205.6 g | APTT (3 h): 16.5 s | Bas (3 h): 0% | Eos (3 h): 0.6% | Fbg (3 h): 207.8 mg/dL | Hb (3 h): 13 g/dL | Ht (3 h): 39.5% | Lym (3 h): 82% | MCH (3 h): 21.7 pg | MCHC (3 h): 32.9% | MCV (3 h): 66 fL | Mono (3 h): 6.4% | Neu (3 h): 11.2% | PT (3 h): 11 s | Plat (3 h): 100.4 x10_4/uL | RBC (3 h): 599.2 x10_4/ul | Ret (3 h): 8.5% | WBC (3 h): 134.2 x10_2/uL | KIDNEY_L (3 h): 0.9 g | KIDNEY_R (3 h): 0.9 g | KIDNEY_TOTAL (3 h): 1.9 g | LIVER (3 h): 10 g | A/G (3 h): 2 | ALP (3 h): 881.4 IU/L | ALT (3 h): 36.4 IU/L | AST (3 h): 66.4 IU/L | BUN (3 h): 14.6 mg/dL | CRE (3 h): 0.6 mg/dL | Ca (3 h): 11.3 mg/dL | Cl (3 h): 106.4 meq/L | DBIL (3 h): 0.072 mg/dL | GLC (3 h): 187 mg/dL | IP (3 h): 9.5 mg/dL | K (3 h): 5 meq/L | LDH (3 h): 89.6 IU/L | Na (3 h): 139.8 meq/L | PL (3 h): 134.4 mg/dL | RALB (3 h): 3.7 g/dL | TBIL (3 h): 0.3 mg/dL | TC (3 h): 76.4 mg/dL | TG (3 h): 50.2 mg/dL | TP (3 h): 5.6 g/dL | gamma-GTP (3 h): 1.4 IU/L | TERMINAL_BW (6 h): 200.9 g | APTT (6 h): 17.4 s | Bas (6 h): 0% | Eos (6 h): 0.6% | Fbg (6 h): 218.2 mg/dL | Hb (6 h): 13.6 g/dL | Ht (6 h): 41.3% | Lym (6 h): 72% | MCH (6 h): 22 pg | MCHC (6 h): 32.9% | MCV (6 h): 66.7 fL | Mono (6 h): 6.6% | Neu (6 h): 20.6% | PT (6 h): 12.2 s | Plat (6 h): 106.2 x10_4/uL | RBC (6 h): 619.2 x10_4/ul | Ret (6 h): 8.9% | WBC (6 h): 71.6 x10_2/uL | KIDNEY_L (6 h): 1 g | KIDNEY_R (6 h): 1 g | KIDNEY_TOTAL (6 h): 2 g | LIVER (6 h): 9.4 g | A/G (6 h): 2 | ALP (6 h): 849.6 IU/L | ALT (6 h): 28.2 IU/L | AST (6 h): 66 IU/L | BUN (6 h): 10.2 mg/dL | CRE (6 h): 0.5 mg/dL | Ca (6 h): 11.1 mg/dL | Cl (6 h): 103.4 meq/L | DBIL (6 h): 0.01 mg/dL | GLC (6 h): 189.6 mg/dL | IP (6 h): 11.2 mg/dL | K (6 h): 5.6 meq/L | LDH (6 h): 116.4 IU/L | Na (6 h): 141.2 meq/L | PL (6 h): 141.6 mg/dL | RALB (6 h): 3.7 g/dL | TBIL (6 h): 0.3 mg/dL | TC (6 h): 78.8 mg/dL | TG (6 h): 50.6 mg/dL | TP (6 h): 5.7 g/dL | gamma-GTP (6 h): 1 IU/L | TERMINAL_BW (9 h): 199.9 g | APTT (9 h): 16.9 s | Bas (9 h): 0% | Eos (9 h): 0.8% | Fbg (9 h): 213.2 mg/dL | Hb (9 h): 13.1 g/dL | Ht (9 h): 40.2% | Lym (9 h): 79.4% | MCH (9 h): 21.7 pg | MCHC (9 h): 32.6% | MCV (9 h): 66.4 fL | Mono (9 h): 6.2% | Neu (9 h): 14% | PT (9 h): 12.5 s | Plat (9 h): 107.9 x10_4/uL | RBC (9 h): 606.2 x10_4/ul | Ret (9 h): 8.8% | WBC (9 h): 91.5 x10_2/uL | KIDNEY_L (9 h): 0.9 g | KIDNEY_R (9 h): 0.9 g | KIDNEY_TOTAL (9 h): 1.8 g | LIVER (9 h): 8.5 g | A/G (9 h): 2.4 | ALP (9 h): 985 IU/L | ALT (9 h): 28 IU/L | AST (9 h): 55.8 IU/L | BUN (9 h): 10.8 mg/dL | CRE (9 h): 0.5 mg/dL | Ca (9 h): 10.8 mg/dL | Cl (9 h): 105.6 meq/L | DBIL (9 h): 0.072 mg/dL | GLC (9 h): 193.6 mg/dL | IP (9 h): 11 mg/dL | K (9 h): 4.8 meq/L | LDH (9 h): 101 IU/L | Na (9 h): 139 meq/L | PL (9 h): 120.8 mg/dL | RALB (9 h): 3.9 g/dL | TBIL (9 h): 0.3 mg/dL | TC (9 h): 67.2 mg/dL | TG (9 h): 43.2 mg/dL | TP (9 h): 5.6 g/dL | gamma-GTP (9 h): 1.4 IU/L | TERMINAL_BW (24 h): 218.2 g | APTT (24 h): 16 s | Bas (24 h): 0% | Eos (24 h): 0.4% | Fbg (24 h): 225 mg/dL | Hb (24 h): 13 g/dL | Ht (24 h): 38.8% | Lym (24 h): 80.4% | MCH (24 h): 22.5 pg | MCHC (24 h): 33.5% | MCV (24 h): 67.2 fL | Mono (24 h): 6.4% | Neu (24 h): 12.4% | PT (24 h): 11.9 s | Plat (24 h): 100.3 x10_4/uL | RBC (24 h): 578.2 x10_4/ul | Ret (24 h): 8.8% | WBC (24 h): 130.7 x10_2/uL | KIDNEY_L (24 h): 1 g | KIDNEY_R (24 h): 1 g | KIDNEY_TOTAL (24 h): 2 g | LIVER (24 h): 11.5 g | A/G (24 h): 2.1 | ALP (24 h): 991.8 IU/L | ALT (24 h): 35 IU/L | AST (24 h): 63.6 IU/L | BUN (24 h): 19.2 mg/dL | CRE (24 h): 0.5 mg/dL | Ca (24 h): 11.3 mg/dL | Cl (24 h): 104.8 meq/L | DBIL (24 h): 0.018 mg/dL | GLC (24 h): 203.8 mg/dL | IP (24 h): 8.4 mg/dL | K (24 h): 5.4 meq/L | LDH (24 h): 130.2 IU/L | Na (24 h): 138.2 meq/L | PL (24 h): 146.6 mg/dL | RALB (24 h): 3.9 g/dL | TBIL (24 h): 0.4 mg/dL | TC (24 h): 79.8 mg/dL | TG (24 h): 96.6 mg/dL | TP (24 h): 5.8 g/dL | gamma-GTP (24 h): 1.4 IU/L
